Data: patent publication US10315994B2, “Photostable compounds, absorbing compounds and uses thereof” (Commonwealth Scientific and Industrial Research Organisation, priority 2015, dated 2019)
Blank lines part the entries; values can stand above or below the molecule they belong to.

Assay: UV/visible absorbance characteristics (λmax, λcrit, ε, E 1%,1 cm)
Assay type: physicochemical
[1] = Table 5, in M-1 cm-1 (unit assumed)
[2] = Table 1, in M-1 cm-1 (unit assumed)
[3] = Table 2, in M-1 cm-1 (unit assumed)

E (1%, 1 cm) (Table 1): 1051 | λcrit (Table 1): 363 nm | λmax (Table 1): 341 nm | ε [2]: 60770
Structure (SMILES): CC1(C)CCN(c2ccc(Cc3ccc(N4C=C(C(=O)C(F)(F)F)C(C)(C)CC4)cc3)cc2)C=C1C(=O)C(F)(F)F [Compound 108]

E (1%, 1 cm) (Table 1): 923 | λcrit (Table 1): 365 nm | λmax (Table 1): 343 nm | ε [2]: 53548
Structure (SMILES): CC1(C)CCN(c2ccc(Oc3ccc(N4C=C(C(=O)C(F)(F)F)C(C)(C)CC4)cc3)cc2)C=C1C(=O)C(F)(F)F [Compound 111]

E (1%, 1 cm) (Table 1): 1120 | λcrit (Table 1): 386 nm | λmax (Table 1): 367 nm | ε [2]: 54658 | E (1%, 1 cm) (Table 2): 1120 | λcrit (Table 2): 387 nm | λmax (Table 2): 367 nm | ε [3]: 54658
Structure (SMILES): CC1(C)CCN(c2ccc(N3C=C(C(=O)C(F)(F)F)C(C)(C)CC3)cc2)C=C1C(=O)C(F)(F)F [Compound 116]

E (1%, 1 cm) (Table 1): 657 | λcrit (Table 1): 382 nm | λmax (Table 1): 349 nm | ε [2]: 25890
Structure (SMILES): CC1(C)CCN(c2ccc(N3C=C(C(=O)C(F)(F)F)C(C)(C)CC3)cc2)CC1 [Compound 117]

ε [2]: 56063
Structure (SMILES): CCC(=O)C1=CN(c2ccc(Oc3ccc(N4C=C(C(=O)CC)C(C)(C)CC4)cc3)cc2)CCC1(C)C [Compound 118]

λmax (Table 7, benzoyl derivatives): 315 nm
Structure (SMILES): CC1(C)CCN(C(C)(C)C)C=C1C(=O)c1c(F)c(F)c(F)c(F)c1F [Compound 185]

UV λmax (synthesis section): 316 nm | ε (synthesis section): 41598 M⁻¹ cm⁻¹
Structure (SMILES): CCCCC(CC)CN(c1ccc(C(=O)C2=CN(C(C)(C)C)CCC2(C)C)cc1)c1ccc(C(=O)C2=CN(C(C)(C)C)CCC2(C)C)cc1 (stereo not drawn) [drawing 95, (((2-ethylhexyl)azanediyl)bis(4,1-phenylene))bis((1-(tert-butyl)-4,4-dimethyl-1,4,5,6-tetrahydropyridin-3-yl)methanone)]

Further lines, the molecule ahead of its results:

Structure (SMILES): Cc1cc(N2C=C(C(=O)C(F)(F)F)C(C)(C)CC2)ccc1N1C=C(C(=O)C(F)(F)F)C(C)(C)CC1
E (1%, 1 cm) (Table 5): 1170 | λcrit (Table 5): 369 nm | λmax (Table 5): 347 nm | ε [1]: 58853

Structure (SMILES): Cc1c(N2C=C(C(=O)C(F)(F)F)C(C)(C)CC2)cccc1N1C=C(C(=O)C(F)(F)F)C(C)(C)CC1
E (1%, 1 cm) (Table 5): 1495 | λcrit (Table 5): 346 nm | λmax (Table 5): 326 nm | ε [1]: 75074

Structure (SMILES): Cc1ccc(N2C=C(C(=O)C(F)(F)F)C(C)(C)CC2)cc1N1C=C(C(=O)C(F)(F)F)C(C)(C)CC1
E (1%, 1 cm) (Table 5): 1315 | λcrit (Table 5): 358 nm | λmax (Table 5): 339 nm | ε [1]: 66020

Structure (SMILES): CCCCCCC(=O)C1=CN(c2ccc(N3C=C(C(=O)CCCCCC)C(C)(C)CC3)cc2)CCC1(C)C [1,1′-(1,4-phenylenebis(4,4-dimethyl-1,4,5,6-tetrahydropyridine-1,3-diyl))bis(heptan-1-one)]
UV λmax (synthesis section): 359 nm | ε (synthesis section): 70222 M⁻¹ cm⁻¹

Structure (SMILES): CC1(C)CCN(C(C)(C)C)C=C1C(=O)/C=C/c1ccc(/C=C/C(=O)C2=CN(C(C)(C)C)CCC2(C)C)cc1 [(2E,2′E)-3,3′-(1,4-phenylene)bis(1-(1-(tert-butyl)-4,4-dimethyl-1,4,5,6-tetrahydropyridin-3-yl)prop-2-en-1-one)]
UV λmax (synthesis section): 386 nm | ε (synthesis section): 36404 M⁻¹ cm⁻¹

Structure (SMILES): CCCCNc1ccc(C(=O)C2=CN(C(C)(C)C)CCC2(C)C)cc1 [Compound 102]
E (1%, 1 cm) (Table 1): 628

Structure (SMILES): CC1(C)C=CN(c2ccccc2)C=C1C(=O)C(F)(F)F [Compound 105]
E (1%, 1 cm) (Table 1): 263 | λcrit (Table 1): 391 nm | λmax (Table 1): 384 nm | ε [2]: 7393

Structure (SMILES): CC1(C)CCN(c2ccc(N3C=C(C(=O)C(F)(F)C(F)(F)C(F)(F)F)C(C)(C)CC3)cc2)C=C1C(=O)C(F)(F)C(F)(F)C(F)(F)F [Compound 158]
E (1%, 1 cm) (Table 1): 750 | λcrit (Table 1): 388 nm | λmax (Table 1): 369 nm | ε [2]: 51600 | E (1%, 1 cm) (Table 2): 750 | λcrit (Table 2): 388 nm | λmax (Table 2): 369 nm | ε [3]: 51600

Structure (SMILES): CC1(C)CCN(C(C)(C)C)C=C1C(=O)C(F)(F)C(F)(F)C(F)(F)C(=O)C1=CN(C(C)(C)C)CCC1(C)C [drawing 123]
E (1%, 1 cm) (Table 5): 1177 | λcrit (Table 5): 337 nm | λmax (Table 5): 317 nm | ε [1]: 63346
